The source of these data is US11672814B2, “NGNA compositions and methods of use” (priority 2008, dated 2023).

Structures are written as SMILES. Where two headings read alike, the source gives them in different places.

One assay relates to HRV-16. The assay can be described thus: Virucidal assay, Rhinovirus titrated on Wi-38 cells (CPE readout). In kind it is cell-based, Human Rhinovirus. As to conditions: 10 minutes.
Another assay concerns Feline Calicivirus (FCV). The assay can be described thus: Virucidal assay, Norovirus surrogate virus titrated on CRFK cells (CPE readout). In kind it is cell-based. To be noted: 10 minutes.
For assay [1], the system named is Influenza B virus B/Malaysia/2506/2004. It counts as cell-based. To be noted: 10 minutes, MDCK.
The test system of a further assay is HSV-1, SC-16. The assay can be described thus: Virucidal assay, HSV-1 titrated on Vero cells (CPE readout). It counts as cell-based, Herpes Simplex Virus type 1. To be noted: 10 minutes; for Sample titer: control virus titer 6.25.

Consider `O=C(CO)N[C@H]1[C@H]([C@H](O)[C@H](O)CO)O[C@](O)(C(=O)O)C[C@@H]1O` [NGNA, n-glycolylneuraminic acid], for which the Virus reduction in the assay on HRV-16 (NGNA 10 nM) amounted to 90.00%; with HRV-16 (NGNA 10 μM), 90.00%; with HRV-16 (NGNA 10 mM) it was 99.44%; in the assay with Feline Calicivirus (FCV) (NGNA 10 nM), 0.00%; with Feline Calicivirus (FCV) (NGNA 10 μM), 0.00%; in the assay on Feline Calicivirus (FCV) (NGNA 10 mM) it was 82.21%. Also, the Virus reduction stood at 0.00% in assay [1] (NGNA 10 nM); 0.00% in assay [1] (NGNA 10 μM); 99.00% in assay [1] (NGNA 10 mM); 0.00% in the assay on HSV-1, SC-16 (NGNA 10 nM); 0.00% in the assay on HSV-1, SC-16 (NGNA 10 μM); 99.98% with HSV-1, SC-16 (NGNA 10 mM). Further, the Sample titer in the assay on HRV-16 (NGNA 10 nM, control virus titer 4.50) was determined as 3.50 log10 TCID50/ml; in the assay on HRV-16 (NGNA 10 μM, control virus titer 4.50), 3.50 log10 TCID50/ml; in the assay with HRV-16 (NGNA 10 mM, control virus titer 4.75), 2.50 log10 TCID50/ml; in the assay on Feline Calicivirus (FCV) (NGNA 10 nM, control virus titer 5.50), 5.50 log10 TCID50/ml; with Feline Calicivirus (FCV) (NGNA 10 μM, control virus titer 5.50), 5.50 log10 TCID50/ml; in the assay with Feline Calicivirus (FCV) (NGNA 10 mM, control virus titer 5.25), 4.50 log10 TCID50/ml. For the same molecule, the Sample titer in the assay with HSV-1, SC-16 (NGNA 10 nM) was determined as 7.00 log10 TCID50/ml; in the assay with HSV-1, SC-16 (NGNA 10 μM), 6.25 log10 TCID50/ml; in the assay with HSV-1, SC-16 (NGNA 10 mM), 2.50 log10 TCID50/ml.
